Assay results as given in patent publication US20130261108A1, “COMPOSITIONS AND METHODS FOR MODULATING FARNESOID X RECEPTORS” (IRM LLC, priority 2010, published 2013).

Biological target: T1, human Farnesoid X Receptor (FXR) ligand binding domain (Homo sapiens, UniProt Q96RI1)
T1 construct: purchased Invitrogen
T1 sequence (Q96RI1 193-472 isoform Q96RI1-2): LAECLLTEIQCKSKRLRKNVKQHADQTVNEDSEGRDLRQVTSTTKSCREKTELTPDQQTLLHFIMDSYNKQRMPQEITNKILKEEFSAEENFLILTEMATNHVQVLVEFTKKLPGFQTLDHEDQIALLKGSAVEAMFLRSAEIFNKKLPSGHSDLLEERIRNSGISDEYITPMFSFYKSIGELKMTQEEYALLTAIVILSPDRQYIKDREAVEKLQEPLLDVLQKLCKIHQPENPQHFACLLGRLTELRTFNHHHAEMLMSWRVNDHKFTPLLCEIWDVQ
Assay: Human GST-FXR LBD co-activator interaction assay (FXR HTRF assay)
Format: biochemical
Details: GST-FXR LBD with biotin-labeled SRC-1 peptide, FRET/HTRF, 2.5 hours at room temperature; response relative to GW4064; read-out: FXR coactivator interaction assay (HTRF) (EC50)
Source text: Human GST-FXR LBD Co-Activator Interaction Assay.
The FXR HTRF assay is a biochemical assay measuring the interaction between FXR and a coactivator protein (SRC1). The ligand-induced interaction with a coactivator protein is a critical step in transcriptional activation by FXR. Thus, this is an assay designed to measure FXR agonist activity of compounds.
The ligand-dependent interaction between GST-FXR LBD and a peptide derived from Steroid Receptor Coactivator-1 (SRC-1) was monitored by Fluorescence Resonance Energy Transfer (FRET). […] Test compounds (in DMSO solution) and detection reagents (anti-GST-Cryptate labeled antibody and Streptavidin-XL665 conjugate; CisBio) were added in assay buffer containing 50 mM KF. Plates are incubated at room temperature in the dark for 2.5 hours before reading on an Envision (PerkinElmer) at 665 nm and 590 nm.
A negative control (without Streptavidin-XL665) was run with each assay and represented the background fluorescence. A reference FXR agonist, GW4064, was included in each experiment as positive control. The efficacy of each test compound was compared to that of GW4064. At each concentration, the relative activity of the test compound was expressed as Response %=(Rsample−RDMSO)/(Rpositive−RDMSO), where Rsample is the HTRF response (expressed in Delta F %) for the test compound, Rpositive is the maximal response for GW4064 at saturating concentrations, and RDMSO is the response for DMSO control. The EC50 values were calculated using GraphPad Prism (GraphPad Software) using non-linear regression curve fit (log(agonist) vs. response−variable slope (four parameters)).

EC50 [nM]	SMILES
57	O=C(O)c1ccc2nc(N3CCC(OCc4c(-c5c(F)cccc5Cl)noc4C4CC4)CC3)sc2c1 [Example 2-12B, 2-(4-{[3-(2-chloro-6-fluorophenyl)-5-cyclopropyl-1,2-oxazol-4-yl]methoxy}piperidin-1-yl)-1,3-benzothiazole-6-carboxylic acid]
10	O=C(O)c1ccc2nc(N3CCC(OCc4c(-c5c(Cl)cccc5Cl)noc4C4CC4)CC3)sc2c1 [Example 2-13, 2-(4-{[5-cyclopropyl-3-(2,6-dichlorophenyl)-1,2-oxazol-4-yl]methoxy}piperidin-1-yl)-1,3-benzothiazole-6-carboxylic acid]
31	O=C(O)c1ccc2nc(N3CCC(OCc4c(-c5c(F)cccc5F)noc4C4CC4)CC3)sc2c1 [Example 2-14, 2-(4-{[5-cyclopropyl-3-(2,6-difluorophenyl)-1,2-oxazol-4-yl]methoxy}piperidin-1-yl)-1,3-benzothiazole-6-carboxylic acid]
246	O=C(O)c1ccc2nc(N3CCC(OCc4c(C5CCCCC5)noc4C4CC4)CC3)sc2c1 [Example 2-15, 2-{4-[(3-cyclohexyl-5-cyclopropyl-1,2-oxazol-4-yl)methoxy]piperidin-1-yl}-1,3-benzothiazole-6-carboxylic acid]
263	O=C(O)c1ccc2nc(N3CCC(OCc4c(C5CCCC5)noc4C4CC4)CC3)sc2c1 [Example 2-16, 2-{4-[(3-cyclopentyl-5-cyclopropyl-1,2-oxazol-4-yl)methoxy]piperidin-1-yl}-1,3-benzothiazole-6-carboxylic acid]
423	O=C(O)c1ccc2nc(N3CCC(OCc4c(C5CC6CCC5C6)noc4C4CC4)CC3)sc2c1 (centres unmarked) [Example 2-17, 2-{4-[(3-{bicyclo[2.2.1]heptan-2-yl}-5-cyclopropyl-1,2-oxazol-4-yl)methoxy]piperidin-1-yl}-1,3-benzothiazole-6-carboxylic acid]
248	CCOC(=O)c1ccc2nc(N3CCCC(OCc4c(-c5ccccc5OC(F)(F)F)noc4C4CC4)CC3)sc2c1 (centres unmarked) [Example 3-1A, ethyl 2-[4-({5-cyclopropyl-3-[2-(trifluoromethoxy)phenyl]-1,2-oxazol-4-yl}methoxy)azepan-1-yl]-1,3-benzothiazole-6-carboxylate]
7	O=C(O)c1ccc2nc(N3CCCC(OCc4c(-c5ccccc5OC(F)(F)F)noc4C4CC4)CC3)sc2c1 (centres unmarked) [Example 3-1B, 2-[4-({5-cyclopropyl-3-[2-(trifluoromethoxy)phenyl]-1,2-oxazol-4-yl}methoxy)azepan-1-yl]-1,3-benzothiazole-6-carboxylic acid]
416	CCOC(=O)c1ccc2nc(N3CCCC(OCc4c(-c5ccccc5C(F)(F)F)noc4C4CC4)CC3)sc2c1 (centres unmarked) [Example 3-2A, ethyl 2-[4-({5-cyclopropyl-3-[2-(trifluoromethyl)phenyl]-1,2-oxazol-4-yl}methoxy)azepan-1-yl]-1,3-benzothiazole-6-carboxylate]
8	O=C(O)c1ccc2nc(N3CCCC(OCc4c(-c5ccccc5C(F)(F)F)noc4C4CC4)CC3)sc2c1 (centres unmarked) [Example 3-2B, 2-[4-({5-cyclopropyl-3-[2-(trifluoromethyl)phenyl]-1,2-oxazol-4-yl}methoxy)azepan-1-yl]-1,3-benzothiazole-6-carboxylic acid]
960	CCOC(=O)c1ccc2nc(N3CCC(OCc4c(-c5c(Cl)cccc5Cl)noc4C(C)C)CC3)sc2c1 [Example 4A, Ethyl 2-(4-((3-(2,6-dichlorophenyl)-5-isopropylisoxazol-4-yl)methoxy)piperidin-1-yl)benzo[d]thiazole-6-carboxylate]
7	CC(C)c1onc(-c2c(Cl)cccc2Cl)c1COC1CCN(c2nc3ccc(C(=O)O)cc3s2)CC1 [Example 4B, 2-(4-((3-(2,6-Dichlorophenyl)-5-isopropylisoxazol-4-yl)methoxy)piperidin-1-yl)benzo[d]thiazole-6-carboxylic acid]
44	O=C(O)c1ccc2nc(N3CCC(OCc4c(C5CCCCC5C(F)(F)F)noc4C4CC4)CC3)sc2c1 (centres unmarked) [Example 5, 2-[4-({5-cyclopropyl-3-[2-(trifluoromethyl)cyclohexyl]-1,2-oxazol-4-yl}methoxy)piperidin-1-yl]-1,3-benzothiazole-6-carboxylic acid]
132	N#Cc1ccc2nc(N3CCC(OCc4c(-c5c(Cl)cccc5Cl)noc4C4CC4)CC3)sc2c1 [Example 6-1, 2-(4-((5-cyclopropyl-3-(2,6-dichlorophenyl)isoxazol-4-yl)methoxy)piperidin-1-yl)benzo[d]thiazole-6-carbonitrile]
19	NC(=O)c1ccc2nc(N3CCC(OCc4c(-c5c(Cl)cccc5Cl)noc4C4CC4)CC3)sc2c1 [Example 6-2, 2-(4-((5-cyclopropyl-3-(2,6-dichlorophenyl)isoxazol-4-yl)methoxy)piperidin-1-yl)benzo[d]thiazole-6-carboxamide]
15	Clc1cccc(Cl)c1-c1noc(C2CC2)c1COC1CCN(c2nc3ccc(-c4nn[nH]n4)cc3s2)CC1 [Example 6-3, 4-(((1-(6-(2H-tetrazol-5-yl)benzo[d]thiazol-2-yl)piperidin-4-yl)oxy)methyl)-5-cyclopropyl-3-(2,6-dichlorophenyl)isoxazole]
2200	N#Cc1ccc2nc(N3CCC(OCc4c(-c5ccccc5OC(F)(F)F)noc4C4CC4)CC3)sc2c1 [Example 7-1, 2-[4-({5-cyclopropyl-3-[2-(trifluoromethoxy)phenyl]-1,2-oxazol-4-yl}methoxy)piperidin-1-yl]-1,3-benzothiazole-6-carbonitrile]
164	NC(=O)c1ccc2nc(N3CCC(OCc4c(-c5ccccc5OC(F)(F)F)noc4C4CC4)CC3)sc2c1 [Example 7-2, 2-[4-({5-cyclopropyl-3-[2-(trifluoromethoxy)phenyl]-1,2-oxazol-4-yl}methoxy)piperidin-1-yl]-1,3-benzothiazole-6-carboxamide]
433	FC(F)(F)Oc1ccccc1-c1noc(C2CC2)c1COC1CCN(c2nc3ccc(-c4nn[nH]n4)cc3s2)CC1 [Example 7-3, 2-[4-({5-cyclopropyl-3-[2-(trifluoromethoxy)phenyl]-1,2-oxazol-4-yl}methoxy)piperidin-1-yl]-6-(2H-1,2,3,4-tetrazol-5-yl)-1,3-benzothiazole]
272	NC(=O)c1cc(F)c2nc(N3CCC(OCc4c(-c5ccccc5OC(F)(F)F)noc4C4CC4)CC3)sc2c1 [Example 7-4, 2-[4-({5-cyclopropyl-3-[2-(trifluoromethoxy)phenyl]-1,2-oxazol-4-yl}methoxy)piperidin-1-yl]-4-fluoro-1,3-benzothiazole-6-carboxamide]
836	N#Cc1ccc2nc(N3CCC(OCc4c(-c5c(F)cccc5Cl)noc4C4CC4)CC3)sc2c1 [Example 7-5, 2-(4-{[3-(2-chloro-6-fluorophenyl)-5-cyclopropyl-1,2-oxazol-4-yl]methoxy}piperidin-1-yl)-1,3-benzothiazole-6-carbonitrile]
154	Fc1cccc(Cl)c1-c1noc(C2CC2)c1COC1CCN(c2nc3ccc(-c4nn[nH]n4)cc3s2)CC1 [Example 7-6, 2-(4-{[3-(2-chloro-6-fluorophenyl)-5-cyclopropyl-1,2-oxazol-4-yl]methoxy}piperidin-1-yl)-6-(2H-1,2,3,4-tetrazol-5-yl)-1,3-benzothiazole]
456	COC(=O)CNC(=O)c1ccc2nc(N3CCC(OCc4c(-c5ccccc5OC(F)(F)F)noc4C4CC4)CC3)sc2c1 [Example 8-1A, Methyl 2-(2-(4-((5-cyclopropyl-3-(2-(trifluoromethoxy)phenyl)isoxazol-4-yl)methoxy)piperidin-1-yl)benzo[d]thiazole-6-carboxamido)acetate]
20	O=C(O)CNC(=O)c1ccc2nc(N3CCC(OCc4c(-c5ccccc5OC(F)(F)F)noc4C4CC4)CC3)sc2c1 [Example 8-1B, 2-(2-(4-((5-cyclopropyl-3-(2-(trifluoromethoxy)phenyl)isoxazol-4-yl)methoxy)piperidin-1-yl)benzo[d]thiazole-6-carboxamido)acetic acid]
87	O=C(NCCS(=O)(=O)O)c1ccc2nc(N3CCC(OCc4c(-c5ccccc5OC(F)(F)F)noc4C4CC4)CC3)sc2c1 [Example 9, 2-(2-(4-((5-cyclopropyl-3-(2-(trifluoromethoxy)phenyl)isoxazol-4-yl)methoxy)piperidin-1-yl)benzo[d]thiazole-6-carboxamido)ethanesulfonic acid]
89	O=C(O)c1ccc2nc(N3CCC(OCc4c(COc5c(Cl)cccc5Cl)noc4C4CC4)CC3)sc2c1 [Example 10-1, 2-(4-{[5-cyclopropyl-3-(2,6-dichlorophenoxymethyl)-1,2-oxazol-4-yl]methoxy}piperidin-1-yl)-1,3-benzothiazole-6-carboxylic acid]
